Among the data in US8334235B2, “Thiadiazolyloxyphenylamidines and use thereof as fungicides” (Bayer Cropscience AG, priority 2008, dated 2012) are logP and pest or weed control values, retold here.

The structures appear in SMILES notation. Bounds are passed on as bounds.

Series [1] can be described thus: log P (pH 2.3). The class given is physicochemical.
Series [2] concerns Puccinia triticina. The experiment in a line: Puccinia triticina test (wheat)/curative. Type of series: in vivo. The settings on record: 192 h, 500 ppm active substance, curative, evaluation 8 days after inoculation, read-out: degree of effectiveness. As to the method: (§1) • Solvent: 50 parts by weight of N,N-dimethylacetamide • Emulsifier: 1 part by weight of alkylaryl polyglycol ether (polyoxyethylene (16) tristearylphenyl ether)
(§2) To prepare a suitable active substance composition, 1 part by weight of active substance is mixed with the given amounts of solvent and emulsifier and the concentrate is diluted to the desired concentration using water.
For the testing of curative effectiveness, young plants are sprayed with a suspension of spores of Puccinia triticina. The plants remain in an incubation chamber at 20° C. and 100% relative humidity for 48 hours and are then sprayed with the active substance composition in the application rate given. The plants are placed in a greenhouse at a temperature of approximately 20° C. and a relative humidity of approximately 80%.
(§3) Evaluation is carried out 8 days after the inoculation. In this connection, 0% means a degree of effectiveness corresponding to that of the control, while a degree of effectiveness of 100% means that no infestation is observed.

Series [3] deals with Sphaerotheca fuliginea. Kind of series: Sphaerotheca test (cucumber)/protective. The class given is in vivo. The settings on record: Podosphaera fuliginea, 168 h, 500 ppm active substance, protective, evaluation 7 days after inoculation, read-out: degree of effectiveness. As for the experimental part: • Solvent: 49 parts by weight of N,N-dimethylformamide • Emulsifier: 1 part by weight of alkylaryl polyglycol ether (polyoxyethylene (16) tristearylphenyl ether) To prepare a suitable active substance composition, 1 part by weight of active substance is mixed with the given amounts of solvents and emulsifier and the concentrate is diluted to the desired concentration using water. For the testing of protective effectiveness, young cucumber plants are sprayed with the active substance composition in the application rate given. One day after treatment, the plants are inoculated with a suspension of spores of Sphaerotheca fuliginea. The plants are then placed in a greenhouse at 70% relative humidity and a temperature of 23° C. Evaluation is carried out 7 days after the inoculation. In this connection, 0% means a degree of effectiveness corresponding to that of the control, while a degree of effectiveness of 100% means that no infestation is observed.

In series [4] the test system is Puccinia triticina. Kind of series: Puccinia triticina test (wheat)/protective. Type of series: in vivo. The note with it: 192 h, 500 ppm active substance, protective, evaluation 8 days after inoculation, read-out: degree of effectiveness. As for the experimental part: as §1, §2
For the testing of protective effectiveness, young plants are sprayed with the active substance composition in the application rate given. After the spray coating has been dried on, the plants are sprayed with a suspension of spores of Puccinia triticina. The plants remain in an incubation chamber at 20° C. and 100% relative humidity for 48 hours. The plants are placed in a greenhouse at a temperature of approximately 20° C. and a relative humidity of approximately 80%.
as §3

For series [5], the system named is bean rust pathogen Uromyces appendiculatus. The experiment in a line: Uromyces test (beans)/protective. The class given is in vivo. The settings on record: 240 h, 100 ppm active substance, protective, evaluation 10 days after inoculation, read-out: degree of effectiveness. As for the experimental part: (§4) • Solvents: 24.5 parts by weight of acetone • 24.5 parts by weight of dimethylacetamide • Emulsifier: 1 part by weight of alkylaryl polyglycol ether (polyoxyethylene (16) tristearylphenyl ether)
To prepare a suitable active substance composition, 1 part by weight of active substance is mixed with the given amounts of solvents and emulsifier and the concentrate is diluted to the desired concentration using water.
For the testing of protective effectiveness, young plants are sprayed with the active substance composition in the application rate given. After the spray coating has been dried on, the plants are inoculated with an aqueous suspension of the spores of the bean rust pathogen Uromyces appendiculatus and then remain in an incubation chamber at approximately 20° C. and 100% relative humidity for 1 day.
The plants are then placed in a greenhouse at approximately 21° C. and a relative humidity of approximately 90%.
Evaluation is carried out 10 days after the inoculation. In this connection, 0% means a degree of effectiveness corresponding to that of the control, while a degree of effectiveness of 100% means that no infestation is observed.

The subject of series [6] is Alternaria solani. Kind of series: Alternaria test (tomato)/protective. The settings on record: 72 h, 100 ppm active substance, protective, evaluation 3 days after inoculation, read-out: degree of effectiveness. The class given is in vivo. As for the experimental part: as §4
To prepare a suitable active substance composition, 1 part by weight of substance is mixed with the given amounts of solvents and emulsifier and the concentrate is diluted to the desired concentration using water.
For the testing of protective effectiveness, young plants are sprayed with the active substance composition in the application rate given. After the spray coating has been dried on, the plants are inoculated with an aqueous suspension of spores of Alternaria solani. The plants are then placed in an incubation chamber at approximately 20° C. and 100% relative humidity.
Evaluation is carried out 3 days after the inoculation. In this connection, 0% means a degree of effectiveness corresponding to that of the control, while a degree of effectiveness of 100% means that no infestation is observed.

Molecule `Cc1cc(N)c(Cl)cc1Oc1nc(CCc2ccc(Cl)cc2)ns1` [2-Chloro-4-({3-[2-(4-chlorophenyl)ethyl]-1,2,4-thiadiazol-5-yl}oxy)-5-methylaniline] displayed a logP in series [1] of 4.5.

In series [1], `Cc1cc(N)c(Cl)cc1Oc1nc(C2(Cl)CC2)ns1` [2-Chloro-4-{[3-(1-chlorocyclopropyl)-1,2,4-thiadiazol-5-yl]oxy}-5-methylaniline] yielded a logP of 3.5. Still for that read-out and setting: the figure for `Cc1ccc(S(=O)(=O)c2nc(C3(Cl)CC3)ns2)cc1` [3-(1-Chlorocyclopropyl)-5-{(4-methylphenyl)sulphonyl}-1,2,4-thiadiazole] is 3.67.

Molecule `Cc1ccc(S(=O)(=O)c2nc(CCc3ccc(Cl)cc3)ns2)cc1` [3-[2-(4-Chlorophenyl)ethyl]-5-[(4-methylphenyl)sulphonyl]-1,2,4-thiadiazole] gave a logP in series [1] of 4.62. `O=c1oc(CCc2ccc(Cl)cc2)ns1` [5-[2-(4-Chlorophenyl)ethyl]-1,3,4-oxathiazol-2-one] had a logP in series [1] of 3.36. On to `CCN(C)C=Nc1cc(C)c(Oc2nc(C3(Cl)CC3)ns2)cc1Cl` [Compound 3, N′-(2-chloro-4-{[3-(1-chlorocyclopropyl)-1,2,4-thiadiazol-5-yl]oxy}-5-methylphenyl)-N-ethyl-N-methylimidoformamide], for which the pest or weed control at 500 ppm in series [2], in series [3] and in series [4] was ≥ 70% throughout. Further, the logP in series [1] was found to be 1.62. On to `Cc1cc(/N=C\N2CCCCC2)c(Cl)cc1Oc1nc(CCc2ccc(Cl)cc2)ns1` [Compound 10, 2-chloro-4-({3-[2-(4-chlorophenyl)ethyl]-1,2,4-thiadiazol-5-yl}oxy)-5-methyl-N-[(Z)-piperidin-1-ylmethylidene]aniline], for which the logP in series [1] was 2.64. Consider `CCN(C)/C=N/c1cc(C)c(Oc2nc(C(C)(C)CCl)ns2)cc1Cl` [Compound 39, N′-(2-chloro-4-{[3-(1-chloro-2-methylpropan-2-yl)-1,2,4-thiadiazol-5-yl]oxy}-5-methylphenyl)-N-ethyl-N-methylimidoformamide], for which the pest or weed control at 500 ppm in series [2], in series [3] and in series [4] was ≥ 70% in each case. For the same molecule, the pest or weed control at 100 ppm in series [5] and in series [6] was ≥ 70% each time.

As a reminder, the logP is the decadic logarithm of the partition coefficient of the neutral form, usually between octanol and water. The low end stands for lower lipophilicity, the high end for higher lipophilicity.
